Reference: patent US20170190691A1, “NOVEL 5-ACYLSULFANYL-HISTIDINE COMPOUNDS AS PRECURSORS OF THE CORRESPONDING 5-SULFANYLHISTIDINES AND THEIR DISULFIDES” (TETRAGEDRON, priority 2014, published 2017)

Key:
Assay type in all cases: physicochemical
[1] = Hydrolysis of compound 3 in water at 90° C. in air, monitored by HPLC; conditions: after 7 h
Experimental: c) Preparation of the compound L-5-sulfanyl-α,N,N,N(trimethyl)-histidine (compound 26) by hydrolysis of the 5-acylsulfanyl compound 3
Compound 3 is prepared and purified by column as described in Example 5. 170 mg (0.6 mmoles) of compound 3 are dissolved in 10 mL of water, and the solution is heated at 90° C. in air for 7 h. The conversion is monitored by HPLC. The hydrolysis of compound 3 is complete after 7 h. The solution is evaporated to dryness. The residue is dissolved in a mixture of 5 mL of methanol and 93 mg (0.6 mmol) of dithiothreitol. After stirring for 4 h under an inert atmosphere, 2 mL of ethanol are added. A precipitate forms immediately, which is filtered and washed with ethanol (2×2 mL), then with ethyl ether (2×2 mL). After drying, 104 mg (72%) of L-5-sulfanyl-α,N,N,N(trimethyl)-histidine are obtained in the form of a beige powder.

[2] = Analytical monitoring by HPLC of the hydrolysis of compound 3 and oxidation in situ into compound 27, aqueous fraction at 40° C.; conditions: water; for % hydrolysis: HPLC
Experimental: e) Analytical monitoring by HPLC of the hydrolysis of the 5-acylsulfanyl compound 3 and oxidation in situ into compound 27
Compound 3 is prepared and purified by column as described in Example 5, using an ethyl acetate/ethanol gradient, followed by elution with water. The aqueous fraction containing the pure compound 3 is placed in a water bath at 40° C. and heated under stirring for two days. Samples are collected every hour, and the mixture is analyzed by HPLC.

[3] = Analytical monitoring by 1H NMR of the hydrolysis of compound 3 and oxidation in situ into compound 27, D2O at ambient temperature; conditions: for % hydrolysis: 1H NMR
Experimental: f) Analytical monitoring by ^1H NMR of the hydrolysis of the 5-acylsulfanyl compound 3 and oxidation in situ into compound 27
Compound 3 is prepared and purified by column as described in Example 5. 30 mg of compound 3 are dissolved in 600 μL of D2O, the solution is transferred to an NMR tube, which is stored at ambient temperature. The conversion is monitored by ^1H NMR.

[4] = Analytical monitoring by 1H NMR and HPLC-ELSD of the hydrolysis of compound 3 into compound 26 in the presence of a thiol (3-mercaptopropionic acid), D2O, 40° C.; conditions: 5 equivalents 3-mercaptopropionic acid
Experimental: b) Analytical monitoring by ^1H NMR of the hydrolysis of the 5-acylsulfanyl compound 3 into the compound L-5-sulfanyl-α,N,N,N(trimethyl)-histidine (Compound 26) in the presence of a thiol
Compound 3 is prepared and purified by column as described in Example 5. 100 mg (0.33 mmoles, 1 eq.) of compound 3 are dissolved in 2.4 mL of D2O. 172 mg of 3-mercaptopropionic acid (142 μL, 5 equivalents) are added, and the solution is heated at 40° C. The conversion is monitored by ^1H NMR and by HPLC-ELSD. The yield of hydrolysis of compound 3 is 90% after 3 h (monitored by ^1H NMR). Compound 26 is formed after 3 h 30 with a yield of 97% (HPLC-ELSD).

hydrolysis of compound 3 (extent, in words) [1]: complete
hydrolysis of compound 3 (extent, in words) ([2]; after 2 days): nearly complete
yield of compound 27 from hydrolysis and in situ oxidation of compound 3 ([2]; after 2 days): 80%
% hydrolysis ([2]; t = 0 h): 0%
% hydrolysis ([2]; t = 2 j): 95%
% hydrolysis ([2]; t = 2 h): 7%
% hydrolysis ([2]; t = 4 h): 21%
% hydrolysis ([2]; t = 6 h): 38%
% hydrolysis ([2]; t = 8 h): 60%
% hydrolysis ([2]; t = 18 h): 85%
hydrolysis of compound 3 (extent, in words) ([3]; after 2 days): nearly complete
% hydrolysis ([3]; t = 0 h): 0%
% hydrolysis ([3]; t = 2 j): 86%
% hydrolysis ([3]; t = 2 h): 19%
% hydrolysis ([3]; t = 10 h): 26%
yield of compound 26 formed from compound 3 ([4]; after 3 h 30, HPLC-ELSD): 97%
yield of hydrolysis of compound 3 ([4]; after 3 h, 1H NMR): 90%
SMILES: CC(=O)Sc1nc[nH]c1C[C@@H](C(=O)[O-])[N+](C)(C)C [Compound 3, L-5-acetylsulfanyl-α,N,N,N(trimethyl)-histidine]
